The source of these data is the NIST ThermoML archive (doi:10.1021/je100472t).

The structures appear in SMILES notation. Numbers after ± are expanded uncertainties.

For this series the following is noted: 101.33 kPa, Liquid; for speed of sound: Pulse-echo method; for mass density: Vibrating tube method.

For orientation: speed of sound means the propagation velocity of pressure waves in the medium. As a reminder, the mass density is mass per unit of volume. `CNc1ccccc1` [N-methylaniline]: the speed of sound by setting is: (293.15 K) 1582.5 ± 2.1 m/s; (298.15 K) 1563.9 ± 2.1 m/s; (303.15 K) 1546 ± 2.1 m/s. The mass density reads like this: (293.15 K) 986.295 ± 0.82 kg/m3; (298.15 K) 982.278 ± 0.82 kg/m3; (303.15 K) 978.284 ± 0.81 kg/m3.
In the case of `Nc1ccccc1` [aniline], the speed of sound by setting is: (293.15 K) 1657 ± 0.94 m/s; (298.15 K) 1637.8 ± 0.9 m/s; (303.15 K) 1619.3 ± 0.9 m/s. The mass density by setting is: (293.15 K) 1021.84 ± 0.092 kg/m3; (298.15 K) 1017.51 ± 0.09 kg/m3; (303.15 K) 1013.23 ± 0.088 kg/m3.
On to `c1ccncc1` [pyridine], for which the speed of sound reads like this: (293.15 K) 1436.6 ± 0.9 m/s; (298.15 K) 1416.2 ± 0.9 m/s; (303.15 K) 1396.9 ± 0.9 m/s. Moreover, the mass density is on record as 983.163 ± 0.087 kg/m3 (293.15 K), 978.138 ± 0.089 kg/m3 (298.15 K) and 973.148 ± 0.09 kg/m3 (303.15 K).
`CCC(C)=O` [butanone]: the speed of sound by setting is: (293.15 K) 1212 ± 0.8 m/s; (298.15 K) 1190.8 ± 0.8 m/s; (303.15 K) 1170.6 ± 0.8 m/s. Besides, the mass density (293.15 K) came to 805.08 ± 0.14 kg/m3, the mass density (298.15 K) turned out to be 799.861 ± 0.14 kg/m3 and the mass density (303.15 K) amounted to 794.636 ± 0.14 kg/m3.
